# Measurements as given in PubChem BioAssay (NCI).
#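 Abbreviation: GI50, concentration required for 50% inhibition of growth. TGI is the concentration that stops growth completely.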
# Columns and labels:
# Test in all cases: NCI tumour cell line growth inhibition, 384-well format
# EKVX NSCLC = system: EKVX NSCLC
# HS 578T breast = system: HS 578T breast
# PC-3 prostate = system: PC-3 prostate
# M14 melanoma = system: M14 melanoma
# RXF 393 renal = system: RXF 393 renal
# NCI-H23 lung = system: NCI-H23 lung
# SF-295 CNS = system: SF-295 CNS
# SN12C renal = system: SN12C renal
# NCI-H522 lung = system: NCI-H522 lung
# MDA-MB-468 breast = system: MDA-MB-468 breast
# COLO 205 colon = system: COLO 205 colon
# HT29 colon = system: HT29 colon
# KM12 colon = system: KM12 colon
# MALME-3M melanoma = system: MALME-3M melanoma
# OVCAR-3 ovarian = system: OVCAR-3 ovarian
# ACHN renal = system: ACHN renal
# HOP-62 NSCLC = system: HOP-62 NSCLC
# SK-MEL-28 melanoma = system: SK-MEL-28 melanoma
# MCF7 breast = system: MCF7 breast
# SK-OV-3 ovarian = system: SK-OV-3 ovarian
# RPMI-8226 leukemia = system: RPMI-8226 leukemia
# DU-145 prostate = system: DU-145 prostate
# A549 NSCLC = system: A549 NSCLC
# SF-539 CNS = system: SF-539 CNS
# HCT-15 colon = system: HCT-15 colon
# BT-549 breast = system: BT-549 breast
# MDA-MB-231 breast = system: MDA-MB-231 breast
# OVCAR-4 ovarian = system: OVCAR-4 ovarian
# LOX IMVI melanoma = system: LOX IMVI melanoma
# TK-10 renal = system: TK-10 renal
# HCT-116 colon = system: HCT-116 colon
# NCI-H460 NSCLC = system: NCI-H460 NSCLC
# SNB-75 CNS = system: SNB-75 CNS
# SNB-19 CNS = system: SNB-19 CNS
# MDA-MB-435 melanoma = system: MDA-MB-435 melanoma
# HOP-92 NSCLC = system: HOP-92 NSCLC
# OVCAR-5 ovarian = system: OVCAR-5 ovarian
# CAKI-1 renal = system: CAKI-1 renal
# OVCAR-8 ovarian = system: OVCAR-8 ovarian
# SR leukemia = system: SR leukemia
# HCC-2998 colon = system: HCC-2998 colon
# UACC-257 melanoma = system: UACC-257 melanoma
# T-47D breast = system: T-47D breast
# SK-MEL-5 melanoma = system: SK-MEL-5 melanoma
# NCI-H322M lung = system: NCI-H322M lung
# NCI/ADR-RES ovarian = system: NCI/ADR-RES ovarian
# U251 glioblastoma = system: U251 glioblastoma
# MOLT-4 leukemia = system: MOLT-4 leukemia
# NCI-H226 lung = system: NCI-H226 lung
# A498 renal = system: A498 renal
# HL-60(TB) leukemia = system: HL-60(TB) leukemia
# UACC-62 melanoma = system: UACC-62 melanoma
# SF-268 CNS = system: SF-268 CNS
# IGROV1 ovarian = system: IGROV1 ovarian
structure (smiles),measurement,setting,value
O=C(CCCCCCNC(=O)c1cnc(N(c2ccccc2)c2ccccc2)nc1)NO,GI50,EKVX NSCLC,11.3 µM
same,TGI,EKVX NSCLC,43.8 µM
same,GI50,HS 578T breast,1.97 µM
same,TGI,HS 578T breast,6.37 µM
same,GI50,PC-3 prostate,2.52 µM
same,TGI,PC-3 prostate,8.1 µM
same,GI50,M14 melanoma,3.7 µM
same,TGI,M14 melanoma,14.8 µM
same,GI50,RXF 393 renal,4.37 µM
same,TGI,RXF 393 renal,17.4 µM
same,GI50,NCI-H23 lung,4.27 µM
same,TGI,NCI-H23 lung,21.2 µM
same,GI50,SF-295 CNS,4.5 µM
same,TGI,SF-295 CNS,15.6 µM
same,GI50,SN12C renal,2.48 µM
same,TGI,SN12C renal,8.92 µM
same,GI50,NCI-H522 lung,2.14 µM
same,TGI,NCI-H522 lung,8.63 µM
same,GI50,MDA-MB-468 breast,1.5 µM
same,TGI,MDA-MB-468 breast,4.12 µM
same,GI50,COLO 205 colon,2 µM
same,TGI,COLO 205 colon,3.9 µM
same,GI50,HT29 colon,3.14 µM
same,TGI,HT29 colon,13.2 µM
same,GI50,KM12 colon,3.53 µM
same,TGI,KM12 colon,16.1 µM
same,GI50,MALME-3M melanoma,1.49 µM
same,TGI,MALME-3M melanoma,5.49 µM
same,GI50,OVCAR-3 ovarian,2.01 µM
same,TGI,OVCAR-3 ovarian,8.19 µM
same,GI50,ACHN renal,7.93 µM
same,TGI,ACHN renal,22.1 µM
same,GI50,HOP-62 NSCLC,2.31 µM
same,TGI,HOP-62 NSCLC,10.3 µM
same,GI50,SK-MEL-28 melanoma,3.23 µM
same,TGI,SK-MEL-28 melanoma,12.8 µM
same,GI50,MCF7 breast,2.18 µM
same,TGI,MCF7 breast,11.8 µM
same,GI50,SK-OV-3 ovarian,2.92 µM
same,TGI,SK-OV-3 ovarian,14.1 µM
same,GI50,RPMI-8226 leukemia,0.573 µM
same,TGI,RPMI-8226 leukemia,1.81 µM
same,GI50,DU-145 prostate,2.18 µM
same,TGI,DU-145 prostate,5.88 µM
same,GI50,A549 NSCLC,10.1 µM
same,TGI,A549 NSCLC,25 µM
same,GI50,SF-539 CNS,5.25 µM
same,TGI,SF-539 CNS,22.4 µM
same,GI50,HCT-15 colon,13 µM
same,TGI,HCT-15 colon,41.6 µM
same,GI50,BT-549 breast,3.08 µM
same,TGI,BT-549 breast,13.3 µM
same,GI50,MDA-MB-231 breast,2.19 µM
same,TGI,MDA-MB-231 breast,6.61 µM
same,GI50,OVCAR-4 ovarian,3.22 µM
same,TGI,OVCAR-4 ovarian,13 µM
same,GI50,LOX IMVI melanoma,1.97 µM
same,TGI,LOX IMVI melanoma,4.3 µM
same,GI50,TK-10 renal,3.37 µM
same,TGI,TK-10 renal,12.5 µM
same,GI50,HCT-116 colon,2.79 µM
same,TGI,HCT-116 colon,10.5 µM
same,GI50,NCI-H460 NSCLC,2.22 µM
same,TGI,NCI-H460 NSCLC,11.3 µM
same,GI50,SNB-75 CNS,4.65 µM
same,TGI,SNB-75 CNS,30.3 µM
same,GI50,SNB-19 CNS,3.59 µM
same,TGI,SNB-19 CNS,12.9 µM
same,GI50,MDA-MB-435 melanoma,2.38 µM
same,TGI,MDA-MB-435 melanoma,5.28 µM
same,GI50,HOP-92 NSCLC,3.26 µM
same,TGI,HOP-92 NSCLC,13.4 µM
same,GI50,OVCAR-5 ovarian,1.84 µM
same,TGI,OVCAR-5 ovarian,4.8 µM
same,GI50,CAKI-1 renal,4.36 µM
same,TGI,CAKI-1 renal,16.6 µM
same,GI50,OVCAR-8 ovarian,2.12 µM
same,TGI,OVCAR-8 ovarian,13.9 µM
same,GI50,SR leukemia,0.323 µM
same,TGI,SR leukemia,1.2 µM
same,GI50,HCC-2998 colon,2.7 µM
same,TGI,HCC-2998 colon,8.93 µM
same,GI50,UACC-257 melanoma,1.07 µM
same,TGI,UACC-257 melanoma,5.12 µM
same,GI50,T-47D breast,1.73 µM
same,TGI,T-47D breast,4.32 µM
same,GI50,SK-MEL-5 melanoma,2.02 µM
same,TGI,SK-MEL-5 melanoma,4.16 µM
same,GI50,NCI-H322M lung,3.52 µM
same,TGI,NCI-H322M lung,16.9 µM
same,GI50,NCI/ADR-RES ovarian,8.89 µM
same,TGI,NCI/ADR-RES ovarian,84.1 µM
same,GI50,U251 glioblastoma,1.85 µM
same,TGI,U251 glioblastoma,4.3 µM
same,GI50,MOLT-4 leukemia,1.34 µM
same,TGI,MOLT-4 leukemia,2.62 µM
same,GI50,NCI-H226 lung,10.7 µM
same,TGI,NCI-H226 lung,26.2 µM
same,GI50,A498 renal,3.49 µM
same,TGI,A498 renal,16.2 µM
same,GI50,HL-60(TB) leukemia,2.36 µM
same,TGI,HL-60(TB) leukemia,3.82 µM
same,GI50,UACC-62 melanoma,1.55 µM
same,TGI,UACC-62 melanoma,4.13 µM
same,GI50,SF-268 CNS,2.86 µM
same,TGI,SF-268 CNS,10.1 µM
same,GI50,IGROV1 ovarian,2.13 µM
same,TGI,IGROV1 ovarian,6.57 µM
